Laboratory results: ChEMBL document CHEMBL1153926, “Evaluation of synthetic sphingolipid analogs as ligands for peroxisome proliferator-activated receptors” (Bioorg Med Chem Lett, 2009)
Calls of active or inactive are those of the source. No cut-off for these calls is given here.

Assays:
Type in all cases: cell-based
[1] = molecular target: T1, Peroxisome proliferator-activated receptor alpha (Mus musculus) (UniProt P23204); test: Transactivation of mouse recombinant PPARalpha expressed in mouse NIH3T3 cells at 0.1 uM to 10 uM by PPRE activation based dual luciferase reporter gene assay relative to control
T1 sequence (whole entry): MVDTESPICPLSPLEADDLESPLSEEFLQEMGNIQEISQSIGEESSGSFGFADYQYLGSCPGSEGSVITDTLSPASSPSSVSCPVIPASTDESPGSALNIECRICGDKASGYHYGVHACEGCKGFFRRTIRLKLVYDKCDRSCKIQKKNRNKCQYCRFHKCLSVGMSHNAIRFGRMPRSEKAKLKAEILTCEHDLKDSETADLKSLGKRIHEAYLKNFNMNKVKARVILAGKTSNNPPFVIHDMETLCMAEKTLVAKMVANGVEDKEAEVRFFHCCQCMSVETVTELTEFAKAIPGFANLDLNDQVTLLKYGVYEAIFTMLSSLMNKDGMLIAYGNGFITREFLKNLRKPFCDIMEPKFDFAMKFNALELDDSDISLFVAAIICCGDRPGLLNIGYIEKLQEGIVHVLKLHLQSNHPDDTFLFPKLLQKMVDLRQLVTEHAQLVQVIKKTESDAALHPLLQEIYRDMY

[2] = molecular target: T2, Peroxisome proliferator-activated receptor gamma (Mus musculus) (UniProt P37238); test: Transactivation of mouse recombinant PPARgamma expressed in mouse NIH3T3 cells by PPRE activation based dual luciferase reporter gene assay relative to control
T2 sequence (whole entry): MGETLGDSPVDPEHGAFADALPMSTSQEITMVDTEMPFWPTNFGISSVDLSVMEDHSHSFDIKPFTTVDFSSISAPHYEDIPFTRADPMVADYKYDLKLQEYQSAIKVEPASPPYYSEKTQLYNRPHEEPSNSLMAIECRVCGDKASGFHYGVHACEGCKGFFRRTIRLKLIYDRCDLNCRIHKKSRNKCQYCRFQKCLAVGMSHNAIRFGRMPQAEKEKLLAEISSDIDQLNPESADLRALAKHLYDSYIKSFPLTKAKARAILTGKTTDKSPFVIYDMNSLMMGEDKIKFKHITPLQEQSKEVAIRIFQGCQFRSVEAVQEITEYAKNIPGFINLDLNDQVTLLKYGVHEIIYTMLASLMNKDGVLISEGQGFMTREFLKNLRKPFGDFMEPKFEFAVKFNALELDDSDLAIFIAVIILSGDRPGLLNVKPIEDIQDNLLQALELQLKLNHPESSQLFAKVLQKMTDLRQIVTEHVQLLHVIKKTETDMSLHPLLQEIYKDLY

[3] = molecular target: T3, Peroxisome proliferator-activated receptor delta (Mus musculus) (UniProt P35396); test: Transactivation of mouse recombinant PPARbeta expressed in mouse NIH3T3 cells by PPRE activation based dual luciferase reporter gene assay relative to control
T3 sequence (whole entry): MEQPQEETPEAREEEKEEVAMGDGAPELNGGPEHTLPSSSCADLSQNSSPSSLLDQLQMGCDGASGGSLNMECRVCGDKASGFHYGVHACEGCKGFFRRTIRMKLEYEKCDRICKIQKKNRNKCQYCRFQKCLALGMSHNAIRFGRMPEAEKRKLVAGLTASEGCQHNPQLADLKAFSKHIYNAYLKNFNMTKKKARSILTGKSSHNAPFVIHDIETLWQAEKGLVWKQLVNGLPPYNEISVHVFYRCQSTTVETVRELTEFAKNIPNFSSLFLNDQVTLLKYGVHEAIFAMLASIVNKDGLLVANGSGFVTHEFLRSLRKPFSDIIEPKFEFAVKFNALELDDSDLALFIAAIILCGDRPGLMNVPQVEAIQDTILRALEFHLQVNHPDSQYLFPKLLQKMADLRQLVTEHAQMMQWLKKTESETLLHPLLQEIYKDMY

[4] = molecular target: T1, Peroxisome proliferator-activated receptor alpha (Mus musculus); test: Transactivation of mouse recombinant PPARalpha expressed in mouse NIH3T3 cells at 5 uM by PPRE activation based dual luciferase reporter gene assay relative to control

Row | SMILES | Activity [1] | Activity [2] | Activity [3] | Activity [4]
1 | Cc1cccc(Nc2cc(Cl)nc(SCC(=O)O)n2)c1C | Active |  |  | 
2 | CCCCCCCCCCCCCC[C@H](O)[C@H](O)[C@@H](CO)NC(=O)[C@H](Cc1ccccc1)NC(=O)OC(C)(C)C | Active | Active | Dose-dependent effect | Active
3 | CCCCCCCCCCCCCC[C@H](O)[C@@H](O)[C@H](CO)NC(=O)[C@H](Cc1ccccc1)NC(=O)OC(C)(C)C | Active | Active | Dose-dependent effect | Active
4 | CC1(COc2ccc(CC3SC(=O)NC3=O)cc2)CCCCC1 (centres undefined) |  | Active |  | 
5 | CCCCCCCCCCCCCC[C@@H](O)[C@@H](O)[C@@H](CO)NC(=O)CBr |  | Active |  | 
6 | CCCCCCCCCCCCCC[C@@H](O)[C@H](O)[C@@H](CO)NC(=O)[C@H](Cc1ccccc1)NC(=O)OC(C)(C)C | Active | Active | Dose-dependent effect | Active

The next lines start with the values.

Row | Activity [1] | Activity [2] | Activity [3] | Activity [4] | SMILES
7 |  | Active | Dose-dependent effect | Active | CCCCCCCCCCCCCC[C@@H](O)[C@@H](O)[C@@H](CO)NC(=O)CCCCCCCCCCCCC
8 |  | Active | Dose-dependent effect | Active | CCCCCCCCCCCCCC[C@H](O)[C@H](O)[C@H](CO)NC(=O)CCCCCCCCCCCCC
9 |  | Active | Dose-dependent effect | Active | CCCCCCCCCCCCCC[C@@H](O)[C@H](O)[C@H](CO)NC(=O)CCCCCCCCCCCCC
